Laboratory results from patent US9512075B2 (OKAYAMA UNIVERSITY, priority 2012, dated 2016).
Converted amounts (≈) assume the structure as drawn. Where two headings read alike, the source gives them in different places.

Columns and labels:
Type in all cases: cell-based
[1] = tested on: Staphylococcus aureus Smith strain; experiment: MIC for Staphylococcus aureus Smith strain; details: read-out: MIC Straphyrococcus aureus Smith
[2] = tested on: Staphylococcus aureus 209P strain; experiment: MIC for Staphylococcus aureus 209P strain; details: for MIC: Staphylococcus aureus, read-out: MIC Straphyrococcus aureus 209P
[3] = tested on: Staphylococcus aureus MRSA No. 17 (methicillin-resistant Staphylococcus aureus: MRSA); experiment: MIC for Staphylococcus aureus MRSA No. 17; details: read-out: MIC Straphyrococcus aureus MRSA No. 17 (MRSA)
[4] = tested on: Enterococcus faecalis 5038 strain; experiment: MIC for Enterococcus faecalis 5038 strain; details: read-out: MIC Enterococcus faecalis 5038
[5] = tested on: Enterococcus faecalis NCTC12201 strain (vancomycin-resistant Enterococcus: VRE); experiment: MIC for Enterococcus faecalis NCTC12201 strain (VRE); details: read-out: MIC Enterococcus faecalis NCTC 12201 (VRE)
[6] = tested on: Clostridium difficile JCM1296 strain; experiment: microbe, parasite or virus in culture; details: for MIC: Clostridioides difficile, JCM1296, read-out: MIC Clostridium difficile JCM1296
[7] = tested on: Clostridium perfringens PB6K strain; experiment: microbe, parasite or virus in culture; details: CD medium, 37° C. overnight, 10% CO2-containing anaerobic conditions; for MIC: Clostridium perfringens, PB6KSTRAIN, read-out: MIC Clostridium perfringens PB6K, PB6K strain; for MIC Clostridium perfringens PB6K: PB6K strain
[8] = tested on: Escherichia coli K-12 strain; experiment: MIC for Escherichia coli K-12 strain; details: for MIC: Escherichia coli, K12STRAIN, read-out: MIC Escherichia coli K12
[9] = tested on: Escherichia coli BE1121 strain; experiment: MIC for Escherichia coli BE1121 strain; details: for MIC: Escherichia coli, BE1121STRAIN, read-out: MIC Escherichia coli BE1121
[10] = Smith strain, regular bouillon medium, 37° C. overnight, turbidity
[11] = 209P strain, regular bouillon medium, 37° C. overnight, turbidity
[12] = MRSA No. 17, regular bouillon medium, 37° C. overnight, turbidity
[13] = 5038 strain, Heart Infusion Broth medium, 37° C. overnight, turbidity
[14] = NCTC12201 strain (VRE), Heart Infusion Broth medium, 37° C. overnight, turbidity
[15] = K-12 strain, regular bouillon medium, 37° C. overnight, turbidity
[16] = BE1121 strain, regular bouillon medium, 37° C. overnight, turbidity

| Compound | MIC [1, 10] [µg/mL] | MIC [2, 11] [µg/mL] | MIC [3, 12] [µg/mL] | MIC [4, 13] [µg/mL] | MIC [5, 14] [µg/mL] | MIC [6] [µg/mL] | MIC [7] [µg/mL] | MIC [8, 15] [µg/mL] | MIC [9, 16] [µg/mL] | also measured |
| --- | --- | --- | --- | --- | --- | --- | --- | --- | --- | --- |
| CC(C)[C@H]1CC[C@H](C)CC1OCC(=O)c1c(O)c2ccccc2oc1=O (stereo in doubt) [B006, 4-hydroxy-3-menthyloxyacetylcoumarin] | 1 (≈ 2.79 µM) | 1 (≈ 2.79 µM) | 2 (≈ 5.58 µM) | 2 (≈ 5.58 µM) | 2 (≈ 5.58 µM) | 2 (≈ 5.58 µM) | 1 (≈ 2.79 µM) | 128 (≈ 357 µM) | 2 (≈ 5.58 µM) |  |
| CCCCCCCCCC(O)=C1C(=O)Nc2ccccc21 [A001, 3-decanoyl-2-oxyindole] | 32 (≈ 111 µM) | 16 (≈ 55.7 µM) | 32 (≈ 111 µM) | 16 (≈ 55.7 µM) | 16 (≈ 55.7 µM) |  |  | 256 (≈ 891 µM) | 256 (≈ 891 µM) |  |
| CCCCCCCCCC(O)=C1C(=O)Nc2cc(Cl)ccc21 [A002, 3-decanoyl-6-chloro-2-oxyindole] | 16 (≈ 49.7 µM) |  | 16 (≈ 49.7 µM) | 16 (≈ 49.7 µM) | 15 (≈ 46.6 µM) | 32 (≈ 99.4 µM) | 32 (≈ 99.4 µM) |  |  | MIC ([2]; 209P): 16 µg/mL (≈ 49.7 µM); MIC [8]: 128 µg/mL (≈ 398 µM); MIC [9]: 128 µg/mL (≈ 398 µM) |
| CCCCCCCCCC(O)=C1C(=O)N(C(=O)OC(C)(C)C)c2cc(Cl)ccc21 [A003, N-Boc-3-decanoyl-6-chloro-2-oxyindole] | 256 (≈ 607 µM) | 256 (≈ 607 µM) | 256 (≈ 607 µM) | 128 (≈ 303 µM) | 128 (≈ 303 µM) | 0.5 (≈ 1.18 µM) | 1 (≈ 2.37 µM) | 256 (≈ 607 µM) | 128 (≈ 303 µM) |  |
| CCCCCCCCCC(O)=C1C(=O)Nc2ccc(F)cc21 [A004, 3-decanoyl-5-fluoro-2-oxyindole] | 16 (≈ 52.4 µM) |  | 32 (≈ 105 µM) | 16 (≈ 52.4 µM) | 15 (≈ 49.1 µM) | 2 (≈ 6.55 µM) | 8 (≈ 26.2 µM) |  |  | MIC ([2]; 209P): 16 µg/mL (≈ 52.4 µM); MIC [8]: 128 µg/mL (≈ 419 µM); MIC [9]: 128 µg/mL (≈ 419 µM) |
| CCCCCCCCCC(=O)N1C(=O)C(=C(O)CCCCCCCCC)c2ccccc21 [A005, 1,3-didecanoyl-2-oxyindole] | 64 (≈ 145 µM) | 32 (≈ 72.5 µM) | 32 (≈ 72.5 µM) | 32 (≈ 72.5 µM) | 32 (≈ 72.5 µM) | 2 (≈ 4.53 µM) | 16 (≈ 36.2 µM) | 128 (≈ 290 µM) | 128 (≈ 290 µM) |  |
| CCCCCCCCCC(O)=C1C(=O)N(C)c2ccccc21 [A007, N-methyl-3-decanoyl-2-oxyindole] | 8 (≈ 26.5 µM) |  | 128 (≈ 425 µM) | 32 (≈ 106 µM) | 15 (≈ 49.8 µM) | 2 (≈ 6.64 µM) | 8 (≈ 26.5 µM) |  |  | MIC ([2]; 209P): 32 µg/mL (≈ 106 µM); MIC [8]: 256 µg/mL (≈ 849 µM); MIC [9]: 256 µg/mL (≈ 849 µM) |
| CCCCC1CCC(C(O)=C2C(=O)N(C(=O)OC(C)(C)C)c3ccccc32)CC1 (stereo not drawn) [A008, N-Boc-3-(4-butylcyclohexylcarbonyl)-2-oxyindole] | 128 (≈ 320 µM) | 64 (≈ 160 µM) | 256 (≈ 641 µM) | 128 (≈ 320 µM) | 128 (≈ 320 µM) | 1 (≈ 2.5 µM) | 2 (≈ 5.01 µM) | 128 (≈ 320 µM) | 128 (≈ 320 µM) |  |
| CCCCC1CCC(C(O)=C2C(=O)N(C(=O)OC(C)(C)C)c3cc(Cl)ccc32)CC1 (stereo not drawn) [A009, N-Boc-3-(4-butylcyclohexylcarbonyl)-6-chloro-2-oxyindole] | 32 (≈ 73.7 µM) | 128 (≈ 295 µM) | 256 (≈ 590 µM) | 4 (≈ 9.22 µM) | 4 (≈ 9.22 µM) | 0.5 (≈ 1.15 µM) | 1 (≈ 2.3 µM) | 128 (≈ 295 µM) | 128 (≈ 295 µM) |  |
| CCCCC1CCC(C(O)=C2C(=O)N(C(C)=O)c3ccccc32)CC1 (stereo not drawn) [A010, N-acetyl-3-(4-butylcyclohexylcarbonyl)-2-oxyindole] | 0.5 (≈ 1.46 µM) | 2 (≈ 5.86 µM) | 1 (≈ 2.93 µM) | 0.5 (≈ 1.46 µM) | 0.5 (≈ 1.46 µM) | 0.25 (≈ 0.732 µM) | 1 (≈ 2.93 µM) | 256 (≈ 750 µM) | 256 (≈ 750 µM) |  |
| CCCCCCCCCC(=O)NCC(O)=C1C(=O)N(C(=O)OC(C)(C)C)c2ccccc21 [A011, N-Boc-3-decanoylaminoacetyl-2-oxyindole] | 128 (≈ 288 µM) | 256 (≈ 576 µM) | 256 (≈ 576 µM) | 256 (≈ 576 µM) | 256 (≈ 576 µM) | 2 (≈ 4.5 µM) | 2 (≈ 4.5 µM) | 128 (≈ 288 µM) | 128 (≈ 288 µM) |  |
| CCCCCCCCCCOCC(O)=C1C(=O)N(C(=O)OC(C)(C)C)c2cc(Cl)ccc21 [A012, N-Boc-3-decyloxyacetyl-6-chloro-2-oxyindole] | 256 (≈ 549 µM) | 256 (≈ 549 µM) | 256 (≈ 549 µM) | 256 (≈ 549 µM) | 256 (≈ 549 µM) |  |  | 256 (≈ 549 µM) | 256 (≈ 549 µM) | MIC Clostridium difficile JCM1296 [6]: 32 µg/mL (≈ 68.7 µM); MIC Clostridium perfringens PB6K [7]: 32 µg/mL (≈ 68.7 µM) |
| CCCCCCCCCCOCC(O)=C1C(=O)N(C(C)=O)c2ccccc21 [A013, N-acetyl-3-decyloxyacetyl-2-oxyindole] | 256 (≈ 685 µM) | 256 (≈ 685 µM) | 256 (≈ 685 µM) | 64 (≈ 171 µM) | 32 (≈ 85.7 µM) | 0.25 (≈ 0.669 µM) | 0.5 (≈ 1.34 µM) | 256 (≈ 685 µM) | 256 (≈ 685 µM) |  |
| CCCCCCCCCCOCC(O)=C1C(=O)N(C(=O)OC(C)(C)C)c2cc(Cl)ccc21 [A056, N-Boc-6-chloro-3-decyloxyacetyl-2-oxyindole] |  |  |  |  |  |  |  |  |  | MIC Straphyrococcus aureus 209P [2, 11]: 256 µg/mL (≈ 549 µM); MIC Clostridium difficile JCM1296 [6]: 4 µg/mL (≈ 8.58 µM); MIC Clostridium perfringens PB6K [7]: 0.5 µg/mL (≈ 1.07 µM); MIC Escherichia coli K12 [8, 15]: 256 µg/mL (≈ 549 µM); MIC Escherichia coli BE1121 [9, 16]: 256 µg/mL (≈ 549 µM) |
| CCCCCCCCCC(=O)N1C(=O)C(=C(O)c2ccc(F)cc2)c2ccccc21 [A061, N-decanoyl-3-(4-fluorobenzoyl)-2-oxyindole] |  |  |  |  |  |  | 2 (≈ 4.88 µM) |  |  | MIC [1]: 2 µg/mL (≈ 4.88 µM); MIC ([2]; 209P): 128 µg/mL (≈ 313 µM); MIC ([3]; MRSA): 64 µg/mL (≈ 156 µM); MIC ([4]; 5038STRAIN): 4 µg/mL (≈ 9.77 µM); MIC [5]: 4 µg/mL (≈ 9.77 µM); MIC [8]: 128 µg/mL (≈ 313 µM); MIC [9]: 128 µg/mL (≈ 313 µM) |
| CCCCCCCCCC(=O)c1c(O)c2cc(Cl)ccc2oc1=O [B003, 6-chloro-3-decanoyl-4-hydroxycoumarin] |  | 2 (≈ 5.7 µM) |  |  |  |  | 0.25 (≈ 0.713 µM) | 256 (≈ 730 µM) | 256 (≈ 730 µM) | MIC [1]: 0.5 µg/mL (≈ 1.43 µM); MIC ([3]; MRSA): 2 µg/mL (≈ 5.7 µM); MIC ([4]; 5038STRAIN): 0.5 µg/mL (≈ 1.43 µM); MIC [5]: 0.25 µg/mL (≈ 0.713 µM) |
| CCCCCCCCCC(=O)c1c(O)c2cc(F)ccc2oc1=O [B004, 3-decanoyl-6-fluoro-4-hydroxycoumarin] |  | 1 (≈ 2.99 µM) |  |  |  |  | 0.25 (≈ 0.748 µM) | 256 (≈ 766 µM) | 2 (≈ 5.98 µM) | MIC [1]: 0.25 µg/mL (≈ 0.748 µM); MIC ([3]; MRSA): 1 µg/mL (≈ 2.99 µM); MIC ([4]; 5038STRAIN): 0.5 µg/mL (≈ 1.5 µM); MIC [5]: 0.25 µg/mL (≈ 0.748 µM) |
